The source of these data is patent US11034663B2, “Tetrahydronaphtho[1,2-b]furan-2(3H)-one derivatives and preparation and uses thereof” (SHANGHAI QINGDONG BIOTECHNOLOGY CO., LTD., priority 2017, dated 2021).

Structures are written as SMILES. “Also recorded” adds a separate entry of the source.

The subject of this test is adjuvant-induced arthritis in rats. The experiment in a line: Therapeutic effect on adjuvant-induced arthritis in rats. The class given is in vivo, Wistar male rats. The procedure:
Wistar male rats, weighing 160-180 g, were raised in the SPF animal room of Shanghai University of Traditional Chinese Medicine, and employed for experiment following at least one week of culture, where the culture was performed at a temperature of 22+1° C. and a humidity of 55±5% under a 12-h light-dark cycle. The feed and water were sterilized and then freely taken by rats. All experiments were carried out in strict accordance with the relevant regulations for experimental animals.
Bacille Calmette-Guerin (BCG) H37Ra was purchased from Difco Co., Ltd. (US); and the YSL-7A Plethysmometer (paw volume) Meter was produced by the equipment station of Shandong Academy of Medical Sciences.
The establishment of the adjuvant-induced arthritis rat model and the administration therefor were described performed as follows. Liquid paraffin was sterilized at high temperature and pressure, added with a 10 mg/mL aqueous BCG solution and emulsified under repeated suction to produce a Freund's complete adjuvant (CFA) emulsion. In the experiment, individual rats were sensitized by intradermal injection of 0.1 mL of the CFA emulsion at the left hind paw to induce adjuvant arthritis in the limbs.
The grouping and administration were performed as follows. The male wistar rats were randomly divided into four groups according to weight each for 10 rats.
The rats in the blank control group were treated with 0.3% CMC solution daily by intragastric administration.
The rats in the arthritis solvent control group were similarly treated with 0.3% CMC solution daily by intragastric administration.
Rats from the two administration groups were respectively treated with 5 mg/kg and 20 mg/kg of compound 59 by oral administration once a day.
In addition to the blank control group, the rats in the other three groups were sensitized individually by […] injection of 0.1 mL of an adjuvant containing 10 mg/mL inactivated bacillus strain at the left hind foot pad. From the 10th day after the occurrence of arthritis, the rats in the administration groups were orally administered for therapeutic pharmacodynamic observation.
The therapeutic effect was monitored as follows. The rats were observed every day for the development of arthritis symptoms and weighed once every 2-3 days. A 5-level standard scoring system based on the clinical disease index was employed to evaluate the inflammation, where “0”: no redness and swelling; “1”: redness and swelling at the small toe joints; “2”: swelling at the toe joints and toes; “3”: swelling at feet below the ankle joint; and “4”: swelling at the entire feet including ankle joint. The two hind feet were measured for the volume to evaluate the swelling degree.

As to `Cc1cc(OCc2ccccc2Br)c(C)c2c1CC[C@H]1C(CN(C)C)C(=O)O[C@@H]21` (mixture of isomers) [Compound 59, (3R/S,3aS,9bR)-8-(2-bromobenzyloxy)-3-dimethylaminomethyl-6,9-dimethyl-3a, 4,5,9b-tetrahydronaphtho [1,2-b]furan-2(3H)-one], the “effect on weight of rats with adjuvant-induced arthritis” value (5 mg/kg and 20 mg/kg, oral, once a day, from the 10th day after occurrence of arthritis, FIG. 1) is “showed similar effect on the weight; also recorded: no significant effect on the weight loss”. In addition, the “disease index of arthritis (clinical disease index, 0-4 score)” value (5 mg/kg and 20 mg/kg, oral, once a day, compared to the model group, P<0.05, FIG. 2) was “significantly lowered”. Also, the “secondary foot lesions (foot swelling, opposite side)” value (5 mg/kg and 20 mg/kg, oral, once a day, compared to the model group, P<0.05, FIG. 3) was “significantly inhibited; also recorded: alleviating”. Also, the “primary foot lesions (foot swelling, sensitization side)” value (5 mg/kg and 20 mg/kg, oral, once a day, compared to the model group, P<0.05, FIG. 4) is reported as “significantly inhibited; also recorded: alleviating”. Under “daily oral administration”, the “overall therapeutic effect on adjuvant-induced arthritis in rats” value is “remarkable therapeutic effect”.
